Results taken from patent US20080090845A1, “Haloalkyl-substituted pyrimidinone derivatives” (Neurogen Corporation, priority 2006, published 2008).

Experiments:
human capsaicin receptor = target: T1, human capsaicin receptor (Homo sapiens, UniProt Q8NER1); experiment: Calcium mobilization assay, determination of antagonist activity (Example 6); type: cell-based; settings: cells expressing human capsaicin receptor, capsaicin-induced fluorescence response; read-out: IC50
T1 construct: pBK-CMV expression construct encoding the full length human capsaicin receptor; expressed in transfected cells
Method: A cDNA encoding full length human capsaicin receptor (SEQ ID NO:1, 2 or 3 of U.S. Pat. No. 6,482,611) is subcloned in the plasmid pBK-CMV (Stratagene, La Jolla, Calif.) for recombinant expression in mammalian cells.
Human embryonic kidney (HEK293) cells are transfected with the pBK-CMV expression construct encoding the full length human capsaicin receptor using standard methods. The transfected cells are selected for two weeks in media containing G418 (400 μg/ml) to obtain a pool of stably transfected cells. Independent clones are isolated from this pool by limiting dilution to obtain clonal stable cell lines for use in subsequent experiments.
Cells transfected with expression plasmids (as described in Example 4) and thereby expressing human capsaicin receptor are seeded and grown to 70-90% confluency in FALCON black-walled, clear-bottomed 96-well plates (#3904, BECTON-DICKINSON, Franklin Lakes, N.J.). The culture medium is emptied from the 96 well plates and FLUO-3 AM calcium sensitive dye (Molecular Probes, Eugene, Oreg.) is added to each well (dye solution: 1 mg FLUO-3 AM, 440 μl DMSO and 440 μl 20% pluronic acid in DMSO diluted 1:250 in Krebs-Ringer HEPES (KRH) buffer (25 mM HEPES, 5 mM KCl, 0.96 mM NaH2PO4, 1 mM MgSO4, 2 mM CaCl2, 5 mM glucose, 1 mM probenecid, pH 7.4), 50 μl diluted solution per well). Plates are covered with aluminum foil and incubated at 37° C. for 1-2 hours in an environment containing 5% CO2. After the incubation, the dye is emptied from the plates, and the cells are washed once with KRH buffer, and resuspended in KRH buffer.
To measure the ability of a test compound to agonize or antagonize a calcium mobilization response in cells expressing capsaicin receptors to capsaicin or other vanilloid agonist, the EC50 of the agonist capsaicin is first determined. An additional 20 μl of KRH buffer and 1 μl DMSO is added to each well of cells, prepared as described above. 100 μl capsaicin in KRH buffer is automatically transferred by the FLIPR instrument to each well. Capsaicin-induced calcium mobilization is monitored using either FLUOROSKAN ASCENT (Labsystems; Franklin, Mass.) or FLIPR (fluorometric imaging plate reader system; Molecular Devices, Sunnyvale, Calif.) instruments. Data obtained between 30 and 60 seconds after agonist application are used to generate an 8-point concentration response curve, with final capsaicin concentrations of 1 nM to 3 μM. KALEIDAGRAPH software (Synergy Software, Reading, Pa.) is used to fit the data to the equation: y=a*(1/(1+(b/x)^c)) to determine the 50% excitatory concentration (EC50) for the response. In this equation, y is the maximum fluorescence signal, x is the concentration of the agonist or antagonist (in this case, capsaicin), a is the Emax, b corresponds to the EC50 value and c is the Hill coefficient. Determination of Agonist Activity
Test compounds are dissolved in DMSO, diluted in 20 μl KRH buffer so that the final concentration of test compounds in the assay well is between 1 μM and 5 μM, and added to cells prepared as described above. The 96 well plates containing prepared cells and test compounds are incubated in the dark, at room temperature for 0.5 to 6 hours. It is important that the incubation not continue beyond 6 hours. Just prior to determining the fluorescence response, 100 μl capsaicin in KRH buffer at twice the EC50 concentration determined as described above is automatically added by the FLIPR instrument to each well of the 96 well plate for a final sample volume of 200 μl and a final capsaicin concentration equal to the EC50. The final concentration of test compounds in the assay wells is between 1 μM and 5 μM. […] The concentration of antagonist required to provide a 50% decrease, relative to the response observed in the presence of capsaicin and without antagonist, is the IC50 for the antagonist, and is preferably below 1 micromolar, 100 nanomolar, 10 nanomolar or 1 nanomolar.

VR = VR (Homo sapiens, UniProt Q8NER1); settings: typical value, background section; cited from earlier work
Chain of VR (Q8NER1 whole entry): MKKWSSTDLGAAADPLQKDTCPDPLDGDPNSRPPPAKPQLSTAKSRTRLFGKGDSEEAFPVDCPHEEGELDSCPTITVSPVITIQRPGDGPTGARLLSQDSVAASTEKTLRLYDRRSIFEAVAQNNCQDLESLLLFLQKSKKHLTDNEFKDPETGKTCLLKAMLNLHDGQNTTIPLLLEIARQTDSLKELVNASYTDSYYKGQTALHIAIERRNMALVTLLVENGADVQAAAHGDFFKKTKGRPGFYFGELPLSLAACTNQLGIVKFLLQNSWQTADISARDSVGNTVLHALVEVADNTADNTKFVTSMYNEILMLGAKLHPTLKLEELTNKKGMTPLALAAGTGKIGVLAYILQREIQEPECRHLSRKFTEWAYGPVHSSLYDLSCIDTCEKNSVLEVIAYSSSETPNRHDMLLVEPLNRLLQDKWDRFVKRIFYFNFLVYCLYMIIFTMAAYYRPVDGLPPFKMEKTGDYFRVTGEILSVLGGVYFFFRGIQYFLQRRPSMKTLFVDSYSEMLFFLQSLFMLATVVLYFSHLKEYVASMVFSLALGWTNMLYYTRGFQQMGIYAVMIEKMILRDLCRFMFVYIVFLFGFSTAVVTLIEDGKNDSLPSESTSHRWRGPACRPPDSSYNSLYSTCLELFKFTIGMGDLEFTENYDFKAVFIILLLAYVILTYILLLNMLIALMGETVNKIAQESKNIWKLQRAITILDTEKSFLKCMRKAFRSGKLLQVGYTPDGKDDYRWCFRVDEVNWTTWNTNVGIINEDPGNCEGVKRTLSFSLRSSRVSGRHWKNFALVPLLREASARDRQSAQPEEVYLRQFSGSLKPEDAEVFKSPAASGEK

T1 sequence (Q8NER1 whole entry): as above

Row | IC50 (human capsaicin receptor) | Structure (SMILES) | Ki (VR)
1 | ≤ 100 nM | CCn1cnc2c(=O)n(-c3ccc(C#N)cc3)c(CCC(C)C(F)(F)F)nc21 (centres unmarked) [Compound 34, 4-[9-ethyl-6-oxo-2-(4,4,4-trifluoro-3-methylbutyl)-6,9-dihydro-1H-purin-1-yl]benzonitrile] | –
2 | ≤ 100 nM | CC(Cc1nc2cccnc2c(=O)n1-c1ccc(Cl)cc1)CC(F)(F)F (centres unmarked) [Compound 35, 3-(4-chlorophenyl)-2-(4,4,4-trifluoro-2-methylbutyl)pyrido[3,2-d]pyrimidin-4(3H)-one] | –
3 | ≤ 100 nM | CCn1cnc2c(=O)n(-c3ccc(C#N)cc3)c(CC(C)C(F)(F)F)nc21 (centres unmarked) [Compound 36, 4-[9-ethyl-6-oxo-2-(3,3,3-trifluoro-2-methylpropyl)-6,9-dihydro-1H-purin-1-yl]benzonitrile] | –
4 | ≤ 100 nM | CC(Cc1nc2c(ncn2C)c(=O)n1-c1ccc(C#N)cc1)C(F)(F)F (centres unmarked) [Compound 37, 4-[9-methyl-6-oxo-2-(3,3,3-trifluoro-2-methylpropyl)-6,9-dihydro-1H-purin-1-yl]benzonitrile] | –
5 | – | Cl.Cl.Cl.Cl.Cl.Cl.N.N.N.N.N.N.N.N.N.N.N.N.N.N.[O-2].[O-2].[Ru+3].[Ru+3].[Ru+4] [ruthenium red] | ≥ 140000 nM
